The record followed here is ChEMBL document CHEMBL3785018, “Pharmacokinetics/pharmacodynamics of acetaminophen analgesia in Japanese patients with chronic pain” (Biol Pharm Bull, 2007).

Data set [1] concerns Homo sapiens. The data set is described as follows: Drug level in Japanese healthy volunteer treated with acetaminophen at 1000 mg, po by HPLC method. The data set is classed as ADME, organism-based. Conditions: in vivo.
In data set [2] the test system is Homo sapiens. The data set is described as follows: AUC (0 to infinity) in Japanese healthy volunteer (5 volunteers) assessed as acetaminophen-cysteine at 1000 mg, po by HPLC method. The data set is classed as ADME, organism-based. More on the design: dose 1000 mg, time infinity, route oral. Particulars: in vivo.
Data set [3] is described as follows: Tmax in Japanese chronic pain patient at 600 to 1000 mg, po administered as single dose by fluorescence polarization immunoassay. The format is ADME, organism-based. Particulars: human, in vivo.
Data set [4] has as its system Homo sapiens. The data set is described as follows: AUC (0 to infinity) in Japanese healthy volunteer (5 volunteers) assessed as acetaminophen-sulfate at 1000 mg, po by HPLC method. The format is ADME, organism-based. Set-up: dose 1000 mg, route oral, time infinity. Particulars: in vivo.
Data set [5] deals with Homo sapiens. The data set is described as follows: AUC (0 to infinity) in Japanese healthy volunteer (5 volunteers) assessed as acetaminophen-glucuronide at 1000 mg, po by HPLC method. The format is ADME, organism-based. More on the design: dose 1000 mg, time infinity, route oral. Particulars: in vivo.
Data set [6] in a line: Tmax in Japanese healthy volunteer (5 volunteers) at 1000 mg, po by HPLC method. The format is ADME, organism-based. Particulars: human, in vivo.
Data set [7] relates to Homo sapiens. The data set is described as follows: Analgesic activity in po dosed Japanese chronic pain patient (5 patients) assessed as compound dose require to cause 50% maximum pain relief score administered as single dose measured over 15 mins to 6 hrs. The format is functional, organism-based.
The nature of data set [8]: Apparent volume of distribution in Japanese chronic pain patient (5 patients) at 800 +/- 141 mg, po administered as single dose by fluorescence polarization immunoassay. The format is ADME, organism-based. Particulars: human, in vivo. (In general: In fluorescence polarisation assays a small probe gives low polarisation when free and higher when bound to something large.)

Data set [9] deals with Homo sapiens. The data set is described as follows: Analgesic activity in Japanese chronic pain patient (5 patients) assessed as sigmoid factor at 800 +/- 141 mg, po administered as single dose measured over 15 mins to 6 hrs. The data set is classed as functional.
Data set [10] can be described thus: Apparent volume of distribution in Japanese healthy volunteer (5 volunteers) at 1000 mg, po by HPLC method. The format is ADME, organism-based. Conditions: human, in vivo.
A short description of data set [11]: AUC (0 to infinity) in Japanese healthy volunteer (5 volunteers) at 1000 mg, po by HPLC method. Conditions: human, in vivo. The format is ADME, organism-based. Set-up: dose 1000 mg, route oral, time infinity.
For data set [12], the system named is Homo sapiens. The data set is described as follows: Toxicity in Japanese chronic pain patient at 600 to 1000 mg, po administered as single dose. Conditions: in vivo. The data set is classed as organism-based.
Data set [13] in a line: Drug uptake in Japanese chronic pain patient at 600 to 1000 mg, po administered as single dose after 4 hrs by fluorescence polarization immunoassay. The data set is classed as ADME, organism-based. Conditions: human, in vivo, read-out: Drug uptake.
Data set [14] can be described thus: Drug uptake in human after 4 hrs. The data set is classed as ADME, organism-based. Conditions: in vivo, read-out: Drug uptake.
Data set [15] concerns Homo sapiens. The data set is described as follows: Toxicity in Japanese healthy volunteer (5 volunteers) at 1000 mg, po. The data set is classed as organism-based. Conditions: in vivo.
Data set [16] has as its system Homo sapiens. The data set is described as follows: Drug metabolism in Japanese healthy volunteer assessed as acetaminophen-cysteine metabolite formation at 1000 mg, po by HPLC method. The data set is classed as ADME, organism-based. Conditions: in vivo.
The test system of data set [17] is Homo sapiens. The data set is described as follows: Analgesic activity in Japanese chronic pain patient (5 patients) assessed as maximum pain relief score at 800 +/- 141 mg, po administered as single dose measured over 15 mins to 6 hrs. The data set is classed as functional.
The nature of data set [18]: Cmax in Japanese healthy volunteer (5 volunteers) at 1000 mg, po by HPLC method. The data set is classed as ADME, organism-based. Set-up: dose 1000 mg, route oral. Particulars: human, in vivo.

SMILES strings stand for the structures. Converted amounts (≈) assume the structure as drawn.

`CC(=O)Nc1ccc(O)c(SC[C@H](N)C(=O)O)c1`: the Drug metabolism result in data set [1] is “metabolite_detected”.

With `CC(=O)Nc1ccc(O)cc1` [ACETAMINOPHEN], the figures for the AUC in data set [2], in data set [4] and in data set [5] were 3700 ng·h/mL, 21000 ng·h/mL and 66000 ng·h/mL, respectively. The Tmax in [3] and in data set [6] was 30 min throughout. The EC50 in data set [7] came to 2 µg/mL (≈ 13.2 µM). The values for the Vd/F in data set [8] and in data set [10] were 30.9 L and 69.7 L, respectively. The figures for the Activity in data set [9], in data set [12] and in data set [15] were 1.3, “Non-toxic” and “Non-toxic”, respectively. For the same compound, in data set [11], the AUC(0-inf) amounted to 77800 ng·h/mL. The concentration at 4 h is 6700 ng/mL in [13] and 120000 ng/mL in data set [14]. For the same compound, the Drug metabolism in data set [16] is less than 0.2 µg/mL. The Emax in data set [17] turned out to be 4.6. In [18], this compound registered a Cmax of 17700 ng/mL.

Broadly, the Tmax is the time at which the peak concentration occurs. One may read the EC50 as the concentration giving half of the maximal effect. The Vd/F is the apparent distribution volume after extravascular dosing. The AUC(0-inf) is total exposure, with the tail of the curve extrapolated. A higher AUC(0-inf) goes with high exposure. As a reminder, the Cmax is the peak of the concentration-time curve.
